Where two headings read alike, the source gives them in different places.
Columns and labels:
[1] = tested on: CACO2; assay: MTT cytotoxicity assay, 72 h; format: cell-based, human; conditions: Homo sapiens, Caco-2, IC50 ± SD
Method: Cytotoxicity assays were performed by using the MTT reduction method as described in the literature [23, 37]. Briefly, cancer cell lines were plated in a flat-bottom 96-wells plate at 1 × 10^4 cells per well density. Then, the cells were incubated with synthetized compounds at different concentrations (from 0.1 to 100 µM) in 200 µL of 10% fetal bovine serum-RPMI or EMEM culture medium at 37 °C for 72 h. Then, 10 µL of MTT was added at a final concentration of 0.5 mg/mL, incubated at 37 °C for 4 h, and then solubilized with 10% sodium dodecyl sulphate (SDS) in 0.1 mM HCl and incubated overnight at 37 °C. Formazan formation was measured at 570 nm in a multi-well reader (StatFax 4200).

[2] = tested on: MRC-5; assay: MTT cytotoxicity assay, 72 h, normal control cells; format: cell-based, human; conditions: Homo sapiens, MRC5, IC50 ± SD, normal fibroblasts
Method: (§1) In our study, the human cancer cell lines used were CFAPC- 1 (pancreatic adenocarcinoma); NCI-H460 (large cell lung); HL-60 (acute promyelocytic leukaemia); CACO2 (colorectal adenocarcinoma); HCT-116 (colorectal carcinoma); K562 (chronic myeloid leukaemia); MCF-7 (breast adenocarcinoma); and MRC-5 control cells (normal fibroblasts).
(§2) CFAPC-1, NCI-H460 H1975, HL-60, HCT-116, CACO2, K562, MCF-7, and MCR-5 were grown and maintained in RPMI 1640 and DMEM F12 as appropriate with 10% fetal bovine serum, 100 UI/mL penicillin–streptomycin, and cultured al 37 °C in 5% CO2 humidified atmosphere. Control cultures were treated with dimethyl sulfoxide (1%) alone at the same concentration as in the purine derivatives treatment. Cell viability was determined by trypan blue dye exclusion. Cell numbers were counted in hemocytometer by light microscopy.
(§3) Cytotoxicity assays were performed by using the MTT reduction method as described in the literature. Briefly, cancer cell lines were plated in a flat-bottom 96-wells plate at 1 × 10^4 cells per well density. Then, the cells were incubated with synthetized compounds at different concentrations (from 0.1 to 100 µM) in 200 µL of 10% fetal bovine serum-RPMI or EMEM culture medium at 37 °C for 72 h. Then, 10 µL of MTT was added at a final concentration of 0.5 mg/mL, incubated at 37 °C for 4 h, and then solubilized with 10% sodium dodecyl sulphate (SDS) in 0.1 mM HCl and incubated overnight at 37 °C. Formazan formation was measured at 570 nm in a multi-well reader (StatFax 4200).

[3] = tested on: K562; assay: MTT cytotoxicity assay, 72 h; format: cell-based, human; conditions: for IC50: Homo sapiens, K562, 72 h, MTT, 72 h, IC50 ± SD; for Selectivity Index (SI) MRC-5/K562: IC50 in MRC-5 / IC50 in K562
Method: as §1, §2, §3

[4] = tested on: HL-60; assay: MTT cytotoxicity assay, 72 h; format: cell-based, human; conditions: for Selectivity Index (SI) MRC-5/HL-60: IC50 in MRC-5 / IC50 in HL-60
Method: as §1, §2, §3

[5] = tested on: CFPAC-1; assay: MTT cytotoxicity assay, 72 h; format: cell-based, human; conditions: Homo sapiens, CFPAC-1, IC50 ± SD
Method: as §1, §2, §3

[6] = tested on: NCI-H460; assay: MTT cytotoxicity assay, 72 h; format: cell-based, human; conditions: for Selectivity Index (SI) MRC-5/NCI-H460: IC50 in MRC-5 / IC50 in NCI-H460
Method: as §1, §2, §3

[7] = tested on: MCF-7; assay: MTT cytotoxicity assay, 72 h; format: cell-based, human; conditions: for IC50: Homo sapiens, MCF7, 72 h, MTT, 72 h, IC50 ± SD; for Selectivity Index (SI) MRC-5/MCF-7: IC50 in MRC-5 / IC50 in MCF-7
Method: as §1, §2, §3

[8] = tested on: HCT-116; assay: MTT cytotoxicity assay, 72 h; format: cell-based, human; conditions: Homo sapiens, HCT-116, IC50 ± SD
Method: as §1, §2, §3

[9] = tested on: HL-60 cells; assay: Cell viability by propidium iodide flow cytometry; format: cell-based, human; conditions: HL-60, 50 μM, 24 h, PI staining
Text: Next, in order to determinate the cell death type induced by the most promising compounds, we performed a flow cytometry analysis of cell viability in cell line HL-60 treated with the most promising compounds (selected according to their IC50 values and SI). The HL-60 cancer cells were chosen due to their sensitivity to prepared compounds. […] As a preliminary apoptosis filter, propidium iodide (PI) staining was used through flow cytometry analysis which discriminated a population of viable cells impermeable to PI (PI negative) from necrotic cells PI-permeable (PI positive) and apoptotic cells (the difference of the previous two). The results are shown in Figure 7, illustrating that all purine derivatives tested induced apoptosis on HL-60 cells. Around 40% of apoptotic cells were detected in a culture treated with compounds 7a and 7i, 30% by 7e, 7g, and 7h and 70% by 7d and 7j. […] (For dot plots, see Supplementary Information Figures S1–S3.)
Cell viability was analyzed by flow cytometry as previously described. In this assay, after setting the baseline to exclude cell debris, cells impermeable to propidium iodide (PI negative) are considered as viable. Two populations of PI-permeable dead cells are distinguished based on fluorescence intensity, corresponding to either hypodiploid apoptotic cells or necrotic cells with intact DNA. Here, HL60 cells were incubated with concentrations of 50 µM of each compound for 24 h at 37 °C. Cells were harvested and stained with 10 µg/mL of propidium iodide to determine cell viability. Samples containing roughly 1 × 10^4 cells were evaluated by flow cytometry (FACScanto II; Becton Dickinson, Mountain View, CA) and analyzed using FCS Express v6 software. Three independent biological replicates were performed.

[10] = Homo sapiens, HL-60, 72 h, MTT, 72 h, IC50 ± SD, read-out: IC50 HL-60
[11] = Homo sapiens, NCI-H460, 72 h, MTT, 72 h, IC50 ± SD, read-out: IC50 NCI-H460
[12] = Homo sapiens, HL-60, -logIC50 in molar concentration, Table S1, read-out: Experimental pIC50 (HL-60) (converted)
[13] = Homo sapiens, NCI-H460, -logIC50 in molar concentration, Table S2, read-out: Experimental pIC50 (NCI-H460) (converted)
[14] = MTT, 72 h, IC50 ± SD, read-out: IC50 NCI-H460

SMILES | IC50 [1] | melting point | IC50 [2] | IC50 [3] | IC50 [4, 10] | IC50 [5] | IC50 [6, 11] | IC50 [7] | IC50 [8] | IC50 [4, 12] | Selectivity Index (SI) MRC-5/HL-60 [4] | IC50 ([4]; MTT, 72 h, IC50 ± SD, read-out: IC50 HL-60) | Selectivity Index (SI) MRC-5/K562 [3] | IC50 [6, 13] | Selectivity Index (SI) MRC-5/NCI-H460 [6] | IC50 [6, 14] | Selectivity Index (SI) MRC-5/MCF-7 [7] | apoptotic cells [9]
CCn1cnc2c(-c3ccc(OC(F)(F)F)cc3)nc(NC3CCCC3)nc21 [4a, N-cyclopentyl-9-ethyl-6-(4-(trifluoromethoxy)phenyl)-9H-purin-2-amine] | > 100 µM | 85 to 87 °C | > 100 µM | > 25 µM | 38 ± 3 µM | > 100 µM | > 100 µM | > 25 µM | > 50 µM | – | – | – | – | – | – | – | – | –
CCCCn1cnc2c(-c3ccc(OC(F)(F)F)cc3)nc(NC3CCCCCC3)nc21 [4i, 9-Butyl-N-cycloheptyl-6-(4-(trifluoromethoxy)phenyl)-9H-purin-2-amine] | > 100 µM | 72 to 74 °C | > 100 µM | > 25 µM | 19 ± 3.9 µM | > 100 µM | > 100 µM | > 25 µM | > 50 µM | 19 µM | – | – | – | – | – | – | – | –
CCCCCn1cnc2c(-c3ccc(OC(F)(F)F)cc3)nc(NC3CCCCCC3)nc21 [4j, N-cycloheptyl-9-pentyl-6-(4-(trifluoromethoxy)phenyl)-9H-purin-2-amine] | > 100 µM | 50 to 53 °C | > 100 µM | > 25 µM | < 6 µM | > 100 µM | > 100 µM | > 25 µM | > 50 µM | 6 µM | > 16.7 | 6 ± 0.8 µM | – | – | – | – | – | –
CCCCCCn1cnc2c(-c3ccc(OC(F)(F)F)cc3)nc(NC3CCCCCC3)nc21 [4k, N-cycloheptyl-9-Hexyl-6-(4-(trifluoromethoxy)phenyl)-9H-purin-2-amine] | > 100 µM | 68 to 70 °C | > 100 µM | > 25 µM | 12 ± 0.6 µM | > 100 µM | > 100 µM | > 25 µM | > 50 µM | 12 µM | – | – | – | – | – | – | – | –
CCCCCn1cnc2c(-c3ccc(OC(F)(F)F)cc3)nc(N3CCC(c4ccccc4)CC3)nc21 [4t, 9-Pentyl-2-(4-phenylpiperidin-1-yl)-6-(4-(trifluoromethoxy)phenyl)-9H-purine] | > 100 µM | 150 to 153 °C | > 100 µM | > 25 µM | > 50 µM | > 100 µM | > 100 µM | > 25 µM | > 50 µM | – | – | – | – | – | – | – | – | –
O=[N+]([O-])c1ccc(N2CCN(c3nc(Cl)nc4c3ncn4C3CCCC3)CC2)nc1 [7a, 2-Chloro-9-cyclopentyl-6-(4-(5-nitropyridin-2-yl)piperazin-1-yl)-9H-purine] | > 100 µM | – | > 100 µM | 0.87 ± 0.01 µM | – | > 100 µM | < 10 µM | 0.95 ± 0.14 µM | 6.4 ± 1.3 µM | 2.1 µM | > 47.6 | – | > 115 | 5.73 µM | > 17.5 | 5.73 ± 0.37 µM | > 105 | Around 40%
Clc1nc(N2CCN(c3cnccn3)CC2)c2ncn(C3CCCC3)c2n1 [7d, 2-Chloro-9-cyclopentyl-6-(4-(pyrazin-2-yl)piperazin-1-yl)-9H-purine] | > 100 µM | – | 17 ± 1 µM | 5.86 ± 1.06 µM | 4.6 ± 0.2 µM | > 100 µM | 8.25 ± 0.11 µM | > 12.5 µM | > 50 µM | 4.6 µM | 3.7 | – | 2.9 | 8.25 µM | 2.0 | – | – | ~70%
Clc1nc(N2CCN(c3ccncc3)CC2)c2ncn(C3CCCC3)c2n1 [7i, 2-Chloro-9-cyclopentyl-6-(4-(pyridin-4-yl)piperazin-1-yl)-9H-purine] | > 100 µM | – | > 100 µM | 9.96 ± 0.93 µM | 3.8 ± 1.5 µM | > 100 µM | < 10 µM | 22 ± 1 µM | > 50 µM | 3.8 µM | > 26.3 | – | > 10 | 8.54 µM | > 11.7 | 8.54 ± 0.21 µM | > 4.5 | Around 40%
COc1ccc(N2CCN(c3nc(Cl)nc4c3ncn4C3CCCC3)CC2)cc1 [7j, 2-Chloro-9-cyclopentyl-6-(4-(4-methoxyphenyl)piperazin-1-yl)-9H-purine] | > 100 µM | – | 30 ± 1 µM | 3.38 ± 0.71 µM | 1.5 ± 0.07 µM | > 100 µM | < 10 µM | 6.61 ± 0.67 µM | > 50 µM | 1.5 µM | 20.0 | – | 8.8 | 7.08 µM | 4.2 | 7.08 ± 0.22 µM | 4.5 | ~70%
